The supplement of paper PMC8671470

Legend:
Settings in all cases: 72 h
[1] = tested on: Mono-Mac-6; assay: cell viability (% survival relative to DMSO control, bortezomib = 0%); higher = less cytotoxic
In short: (§1)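 Percent survival figures are means of duplicate wells. They were obtained by CellTiter-Glo luminescence after 10 AML and 5 CML cell lines spent 72 h at 37 °C with 5% CO2 in 384-well plates with compounds at 1, 10, 100, 1000 or 10000 nM. Vehicle was set to 100% and a 10 µM positive control to 0%.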

[2] = tested on: LAMA-84; assay: as above
In short: as §1

[3] = tested on: BV-173; assay: as above
In short: as §1

[4] = tested on: HL-60; assay: area under dose-response curve (viability, 1 nM-10 uM) (fraction (0-1)); higher = more sensitive
In short: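 Four-parameter log-logistic fits in drc and PharmacoGx supplied area under the curve where it is given. Underlying viability came from CellTiter-Glo, normalised to DMSO and proteasome-inhibitor wells, with the proteasome inhibitor at 10 μM. HL-60 cells in RPMI 1640 plus 10% FBS had been rescreened against the full library at five tenfold concentrations of 1–10,000 nM, in duplicate on 384-well plates, with DMSO or 100 nM of one of three metabolic inhibitors, for 72 h at 37 °C, 5% CO2.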

[5] = tested on: myeloid leukemia patient primary cells Pat.2; assay: cell viability (% survival relative to DMSO control); higher = less cytotoxic
In short: (§2)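 Mononuclear cells from patients with AML or CML were thawed, purified on Ficoll and placed in RPMI 1640 with 10% FBS at 10,000 cells/well on 384-well plates. The plates came pre-printed with 70 compounds at five tenfold concentrations spanning 1–10,000 nM, in duplicate, and cells were exposed for 72 h. CellTiter-Glo gave viability, scaled between DMSO wells and wells with 10 μM proteasome inhibitor. Where reported, area under the curve was obtained from log-logistic fits with four parameters using the drc and PharmacoGx R packages.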

[6] = tested on: myeloid leukemia patient primary cells Pat.14; assay: as above
In short: as §2

[7] = tested on: myeloid leukemia patient primary cells Pat.10; assay: as above
In short: as §2

[8] = tested on: myeloid leukemia patient primary cells Pat.8; assay: as above
In short: as §2

[9] = tested on: myeloid leukemia patient primary cells Pat.11; assay: area under dose-response curve (viability, 1 nM-10 uM) (fraction (0-1)); higher = more sensitive
Method: (§3)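 AUC (0–1, higher = more sensitive) of the 5-point dose–response (1 nM–10 µM, 72 h, CellTiter-Glo) in primary AML/CML patient mononuclear cells. 0.030103 is the floor for inactive compounds.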

[10] = tested on: myeloid leukemia patient primary cells Pat.13; assay: as above
Method: as §3

[11] = tested on: myeloid leukemia patient primary cells Pat.7; assay: as above
Method: as §3

[12] = tested on: myeloid leukemia patient primary cells Pat.4; assay: as above
Method: as §3

[13] = tested on: myeloid leukemia patient primary cells Pat.12; assay: as above
Method: as §3

[14] = tested on: myeloid leukemia patient primary cells Pat.14; assay: as above
Method: as §3

[15] = tested on: myeloid leukemia patient primary cells Pat.5; assay: as above
Method: as §3

[16] = tested on: myeloid leukemia patient primary cells Pat.6; assay: as above
Method: as §3

[17] = tested on: myeloid leukemia patient primary cells Pat.15; assay: as above
Method: as §3

[18] = tested on: myeloid leukemia patient primary cells Pat.3; assay: as above
Method: as §3

[19] = tested on: myeloid leukemia patient primary cells Pat.1; assay: as above
Method: as §3

[20] = tested on: myeloid leukemia patient primary cells Pat.10; assay: as above
Method: as §3

[21] = tested on: myeloid leukemia patient primary cells Pat.9; assay: as above
Method: as §3

[22] = tested on: myeloid leukemia patient primary cells Pat.8; assay: as above
Method: as §3

[23] = tested on: myeloid leukemia patient primary cells Pat.2; assay: as above
Method: as §3

O=C(O)CC[N+](=O)[O-] [3-nitropropionic acid]
Settings	area under dose-response curve, co-treatment: AZD3965 100 nM	area under dose-response curve, co-treatment: DMSO vehicle	area under dose-response curve, co-treatment: GSK2194069 100 nM	area under dose-response curve, co-treatment: pictilisib 100 nM	cell viability, 1 nM [%]	cell viability, 10 nM [%]	cell viability, 100 nM [%]	cell viability, 1000 nM [%]	cell viability, 10000 nM [%]
[1]	–	–	–	–	102	93.6	101	97.4	104
[2]	–	–	–	–	104	103	98.6	97.5	103
[3]	–	–	–	–	93.7	93.5	106	114	93.7
[4]	< 0.0301	< 0.0301	< 0.0301	< 0.0301	–	–	–	–	–
[5]	–	–	–	–	91.3	98.1	> 100	92.7	83.7
[6]	–	–	–	–	98.6	91.2	> 100	84.7	30.7
[7]	–	–	–	–	90.9	83.7	74.7	76.2	36.6
[8]	–	–	–	–	81.1	96.9	95.6	96.3	82.7

Settings	area under dose-response curve
[9]	< 0.0301
[10]	0.0548
[11]	0.058
[12]	0.113
[13]	0.0457
[14]	0.112
[15]	0.168
[16]	0.0437
[17]	0.123
[18]	0.133
[19]	0.0529
[20]	0.0892
[21]	0.148
[22]	< 0.0301

Cc1[nH]nc(C(F)(F)F)c1Cc1sc2c(c1C(=O)N1C[C@](C)(O)CO1)c(=O)n(C)c(=O)n2C(C)C [AZD3965]
Settings	area under dose-response curve, co-treatment: AZD3965 100 nM	area under dose-response curve, co-treatment: DMSO vehicle	area under dose-response curve, co-treatment: GSK2194069 100 nM	area under dose-response curve, co-treatment: pictilisib 100 nM	cell viability, 1 nM [%]	cell viability, 10 nM [%]	cell viability, 100 nM [%]	cell viability, 1000 nM [%]	cell viability, 10000 nM [%]
[1]	–	–	–	–	108	105	111	84.9	98.3
[2]	–	–	–	–	89.5	120	113	95.1	102
[3]	–	–	–	–	91.4	103	4.97	0.26	0.551
[4]	< 0.0301	< 0.0301	< 0.0301	< 0.0301	–	–	–	–	–
[5]	–	–	–	–	97	87.2	99	96.3	98
[6]	–	–	–	–	84.2	39.1	> 100	89.9	98.9
[7]	–	–	–	–	98.2	33.4	85	46.5	48.7
[8]	–	–	–	–	86.7	74.6	89.9	92.5	87.8

Settings	area under dose-response curve
[9]	< 0.0301
[10]	< 0.0301
[11]	< 0.0301
[12]	< 0.0301
[13]	< 0.0301
[14]	< 0.0301
[15]	0.149
[16]	< 0.0301
[17]	< 0.0301
[18]	< 0.0301
[19]	< 0.0301
[20]	0.167
[21]	< 0.0301
[22]	< 0.0301
[23]	< 0.0301

O=C(/C=C/c1ccc(O)c(O)c1)OCCc1ccccc1 [Caffeic acid phenethyl ester]
Settings	area under dose-response curve, co-treatment: AZD3965 100 nM	area under dose-response curve, co-treatment: DMSO vehicle	area under dose-response curve, co-treatment: GSK2194069 100 nM	area under dose-response curve, co-treatment: pictilisib 100 nM	cell viability, 1 nM [%]	cell viability, 10 nM [%]	cell viability, 100 nM [%]	cell viability, 1000 nM [%]	cell viability, 10000 nM [%]
[1]	–	–	–	–	95	92.7	102	79.1	39.4
[2]	–	–	–	–	105	104	98.1	89.3	36.3
[3]	–	–	–	–	93.2	102	94.3	31.9	1.21
[4]	0.0691	0.0547	0.0593	0.138	–	–	–	–	–
[5]	–	–	–	–	95.4	98.6	> 100	89.3	64
[6]	–	–	–	–	95.7	83.5	80.5	48.9	16.3
[7]	–	–	–	–	88.2	63.9	33	31	83.7
[8]	–	–	–	–	97.7	80.9	85.1	29	5.61

Settings	area under dose-response curve
[9]	0.14
[10]	0.082
[11]	0.323
[12]	0.328
[13]	0.201
[14]	0.242
[15]	0.411
[16]	0.168
[17]	0.145
[18]	0.467
[19]	0.155
[20]	0.539
[21]	0.563
[22]	0.297

CCN(CC)C(=S)SSC(=S)N(CC)CC [Disulfiram]
Settings	area under dose-response curve, co-treatment: AZD3965 100 nM	area under dose-response curve, co-treatment: DMSO vehicle	area under dose-response curve, co-treatment: GSK2194069 100 nM	area under dose-response curve, co-treatment: pictilisib 100 nM	cell viability, 1 nM [%]	cell viability, 10 nM [%]	cell viability, 100 nM [%]	cell viability, 1000 nM [%]	cell viability, 10000 nM [%]
[1]	–	–	–	–	91.9	100	67.9	25.5	62.5
[2]	–	–	–	–	93.5	94.5	94.4	90.8	67.7
[3]	–	–	–	–	96	103	97.6	37.5	-0.175
[4]	< 0.0301	< 0.0301	< 0.0301	< 0.0301	–	–	–	–	–
[5]	–	–	–	–	95.6	93.9	39.1	0.978	3.7
[6]	–	–	–	–	89.1	93.9	87.8	60.5	21.4
[7]	–	–	–	–	85	72.2	47.8	56.6	> 100
[8]	–	–	–	–	61.6	76.7	39.6	0.473	1.14

Settings	area under dose-response curve
[9]	0.374
[10]	0.412
[11]	0.153
[12]	0.373
[13]	0.485
[14]	0.19
[15]	0.303
[16]	0.414
[17]	0.623
[18]	0.164
[19]	0.398
[21]	0.257
[22]	0.503
[23]	0.512
